Experimental data: patent publication US20040014946A1, “Protein interaction method and composition” (priority 2002, published 2004)

Test system: AbI Protein Tyrosine Kinase
Assay: On-chip phosphorylation inhibition screening assay (biofunction chip, MALDI MS)
Assay type: biochemical
Conditions: 250 nM substrate, 23° C.
Experimental: FIG. 8 illustrates a biofunction chip with enzymatic functions. The reaction components consisted of 0.4U/well of AbI at pH 7.5, 0.1 mM ATP, and 400 nM substrate. 4 μl were added per well, and the reaction was incubated at 23° C. for 90 minutes. On-chip phosphorylation in rabbit reticulocyte extract with various substrate concentrations (0, 10, 30, 100, and 300 nM) is shown in FIG. 10. Reproducibility of the spectra in the same scale and in different scales normalized to the phosphorylated peaks are shown in FIG. 13. The percent phosphorylation is determined over time for 1 Unit of substrate per well versus 0.12 Unit substrate per well.
Screening assays for ATP analogs or substrate analogs capable of inhibiting phosphorylation were also tested. […] 250 nM substrate, 5 μM ATP, 20 U/well AbI TK, and 0, 4, 8, 12, 16, and 20 μM ATTP were incubated at 23° C. for 60 minutes. […] 250 nM substrate, 5 μM ATP, 20 U/well AbI TK, and 0, 5, 10, 15 and 40 μM Genistein were incubated at 23° C. for 60 minutes. […] 250 nM substrate, 100 μM ATP, 0.4 Units/well AbI TK, and 0, 1, 2, 4, 8, and 12 μM Erbstain were incubated at 23° C. for 60 minutes.
The components of biofunction chips are useful for kinase studies, histone acetylation, DNA methylation and protease studies. […]

| inhibition of phosphorylation (100 μM ATP, 0.4 Units/well AbI TK, 0, 1, 2, 4, 8 and 12 μM Erbstain, 60 minutes (FIG. 16)) | inhibition of phosphorylation (5 μM ATP, 20 U/well AbI TK, 0, 5, 10, 15 and 40 μM Genistein, 60 minutes (FIG. 15)) | Structure (SMILES) |
| --- | --- | --- |
| inhibition of phosphorylation |  | O=CN/C=C/c1cc(O)ccc1O [Erbstain] |
|  | inhibition of phosphorylation | O=c1c(-c2ccc(O)cc2)coc2cc(O)cc(O)c12 [Genistein] |
